Experiments:
ERα receptor = ERα receptor (Homo sapiens (Human), UniProt P03372); assay: PRα induction assay in MCF7 cells (ERα agonism); type: cell-based; settings: MCF7 breast cancer cells
Procedure: PRα Induction Assay in MCF7 Cells
The purpose of the following PRα induction assay is to determine whether a test compound has agonistic activity against ERα receptor (an agonist would be expected to activate the receptor).
Culture MCF7 (purchased from ATCC HTB-22) in DMEM media supplemented with 10% FBS, 0.01 mg/mL human insulin 1 and 1% penicillin/streptomycin antibiotics and plate the cells (prior to becoming 70% confluent) in 384-well flat-bottom plates at a density of 4,000 cells per well in 20 μL volume in DMEM phenol red free media containing 10% FBS (charcoal stripped). Incubate the cells overnight in a cell culture incubator (5% CO2, 95% relative humidity at 37° C.) and allow the cells to attach to the plate. The following day, dose the cells with test compound. Use an Echo 555 acoustic dispenser to prepare compound serial dilutions (1:3) in a range from 6 μM to 0.0003 μM. Dose the cells with the addition of the test compound (5 μL) from the serial dilution plate to the cell plate producing a final DMSO concentration of 0.2% with a final concentration of the test compound dose range between 2 and 0.0001 μM. For the maximum point use media containing 0.2% of DMSO and for the minimum point, use fulvestrant diluted at […] final concentrations in the growth media containing 0.2% DMSO. After dosing with the test compound, incubate the cell plates at 37° C. and 5% CO2 for 24 hours. Fix the cells by adding 14% para-formaldehyde (10 μL) for 30 minutes at room temperature. Wash cells once with PBS (20 μL) and incubate with PBS (20 μL) containing 0.5% (v/v) TWEEN® 20 for 1 hour. […]
The following day, wash cells with PBS 0.05% TWEEN® 20 (2×20 μL) and incubate with secondary antibody (20 μL/well) (1:1000 dilution, Goat anti-rabbit IgM ALEXA FLUOR™ 488) in PBS 1% BSA for 105 minutes at room temperature. […] Scan plates with ACUMEN EXPLORER™ [Laser-scanning fluorescence microplate cytometer manufactured by TTP LABTECH LTD] to measure PRα. […]

[1] = Rat oral bioavailability assay; type: in vivo; settings: plasma, Sprague-Dawley rats, IV 1 mg/kg, PO 10 mg/kg, read-out: oral bioavailability (% F)
Procedure: Rat Oral Bioavailability Assay
Administer the test compound to Sprague-Dawley rats IV at 1 mg/kg (using vehicles of either: 20% CAPTISOL® in 25 mM sodium phosphate buffer, pH2 quantum satis; or 25% DMA, 15% EtOH, 10% propylene glycol, 25% 2-pyrrolidone, and 25% purified water) and PO at 10 mg/kg (using a vehicle of 1% hydroxyethyl cellulose, 0.25% polysorbate 80, 0.05% Antifoam 1510-US, and purified water quantum satis). Collect serial blood samples at 0.08, 0.25, 0.5, 1, 2, 4, 8, and 12 hours post dose for IV bolus and at 0.25, 0.5, 1, 2, 4, 8, and 12 hours post dose after oral administration. After treatment with an EDTA […], obtain plasma by centrifugation and store at −70° C. until analysis by LC-MS/MS. Determine the test compound concentration in plasma and upload into the Watson LIMS™ system where noncompartmental analysis is used to calculate Area Under the Curve (AUC) for both IV and PO arms. Calculate oral bioavailability (% F) via the following equation, % F=(AUCPO×DoseIV)/(AUCIV×DosePO)×100.

ERα receptor, sequence (P03372 whole entry): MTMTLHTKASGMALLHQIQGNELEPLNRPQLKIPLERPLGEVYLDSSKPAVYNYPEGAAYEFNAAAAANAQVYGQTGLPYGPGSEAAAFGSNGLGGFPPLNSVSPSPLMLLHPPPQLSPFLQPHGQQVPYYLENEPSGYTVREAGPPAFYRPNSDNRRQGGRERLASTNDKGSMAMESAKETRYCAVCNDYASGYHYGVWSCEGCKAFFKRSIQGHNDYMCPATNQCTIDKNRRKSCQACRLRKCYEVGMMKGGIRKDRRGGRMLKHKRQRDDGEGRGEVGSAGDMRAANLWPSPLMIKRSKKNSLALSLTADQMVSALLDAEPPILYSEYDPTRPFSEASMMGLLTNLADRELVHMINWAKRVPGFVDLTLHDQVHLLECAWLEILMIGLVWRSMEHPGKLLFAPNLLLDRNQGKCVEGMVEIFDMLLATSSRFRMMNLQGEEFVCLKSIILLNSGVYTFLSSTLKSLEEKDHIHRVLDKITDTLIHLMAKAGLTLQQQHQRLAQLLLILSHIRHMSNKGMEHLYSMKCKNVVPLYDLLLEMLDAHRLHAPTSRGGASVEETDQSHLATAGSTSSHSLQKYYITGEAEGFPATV

| Compound | agonistic activity (PRα induction) (ERα receptor) | bioavailability [1] |
| --- | --- | --- |
| Oc1ccc2c3c(cnc2c1)-c1ccc(C(F)(F)F)cc1OC3c1ccc(OCCN2CC(CF)C2)cc1 (single isomer, unassigned; isomer 1) [Example 1A, 5-(4-{2-[3-(Fluoromethyl)azetidin-1-yl]ethoxy}phenyl)-8-(trifluoromethyl)-5H-[1]benzopyrano[4,3-c]quinolin-2-ol, Isomer 1] | no significant agonistic activity |  |
| Oc1ccc2c3c(cnc2c1)-c1ccc(C(F)(F)F)cc1OC3c1ccc(OCCN2CC(CF)C2)cc1 (racemic) [Example 1, Racemic 5-(4-{2-[3-(Fluoromethyl)azetidin-1-yl]ethoxy}phenyl)-8-(trifluoromethyl)-5H-[1]benzopyrano[4,3-c]quinolin-2-ol] | no significant agonistic activity |  |
| Oc1ccc2c3c(cnc2c1)-c1ccc(C(F)(F)F)cc1OC3c1ccc(OCCN2CC(CF)C2)cc1 (single isomer, unassigned; isomer 2) [Example 1B, 5-(4-{2-[3-(Fluoromethyl)azetidin-1-yl]ethoxy}phenyl)-8-(trifluoromethyl)-5H-[1]benzopyrano[4,3-c]quinolin-2-ol, Isomer 2] | no significant agonistic activity | ~50% |
